Measured values as given in patent publication US9113629B2, “4-amino-6-(4-substituted-phenyl)-picolinates and 6-amino-2-(4-substituted-phenyl)-pyrimidine-4-carboxylates and their use as herbicides” (DOW AGROSCIENCES LLC, priority 2013, dated 2015).
Read-outs that look alike come from different tables or passages of the source.

What was measured:
[1] = test system: Key Broadleaf Weed and Crop Species; assay: Post-emergent Test II herbicidal activity (Table 5); type: in vivo; conditions: post-emergence, 336 h, 14 days after application; for pest or weed control at 70 g/ha: application rate 70 g ai/ha; for pest or weed control at 140 g/ha: application rate 140 g ai/ha
Procedure, shortened: (§1)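 Post-emergence foliar spray, 187 L/ha, track sprayer at 43 cm above canopy. Carrier: acetone/water/IPA/DMSO/Atplus 411F/Triton X-155. Plants at 1st–2nd true leaf; subirrigated afterwards; % injury scored visually at 14 d.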

[2] = test system: Key Grass and Sedge Weeds as well as Grass Crops; assay: Post-emergent Test II herbicidal activity (Table 6); type: in vivo; conditions: post-emergence, 336 h; for pest or weed control at 70 g/ha: 70 g ai/ha; for pest or weed control at 140 g/ha: 140 g ai/ha
Procedure, shortened: as §1

[3] = ABUTH: velvetleaf (Abutilon theophrasti), read-out: Visual Growth Reduction (%) 14 Days After Application, ABUTH
[4] = AMARE: redroot pigweed (Amaranthus retroflexus), read-out: Visual Growth Reduction (%) 14 Days After Application, AMARE
[5] = BRSNN: oilseed-rape, canola (Brassica napus), read-out: Visual Growth Reduction (%) 14 Days After Application, BRSNN
[6] = CHEAL: lambsquarters (Chenopodium album), read-out: Visual Growth Reduction (%) 14 Days After Application, CHEAL
[7] = EPHHL: wild poinsettia (Euphorbia heterophylla), read-out: Visual Growth Reduction (%) 14 Days After Application, EPHHL
[8] = HELAN: sunflower (Helianthus annuus), read-out: Visual Growth Reduction (%) 14 Days After Application, HELAN
[9] = VIOTR: wild pansy (Viola tricolor), read-out: Visual Growth Reduction (%) 14 Days After Application, VIOTR
[10] = CYPES: yellow nutsedge (Cyperus esculentus), read-out: Visual Growth Reduction (%) 14 Days After Application, CYPES
[11] = DIGSA: crabgrass (Digitaria sanguinalis), read-out: Visual Growth Reduction (%) 14 Days After Application, DIGSA
[12] = ECHCG: barnyardgrass (Echinochloa crus-galli), read-out: Visual Growth Reduction (%) 14 Days After Application, ECHCG
[13] = ORYSA: rice (Oryza sativa), crop, read-out: Visual Growth Reduction (%) 14 Days After Application, ORYSA
[14] = SETFA: giant foxtail (Setaria faberi), read-out: Visual Growth Reduction (%) 14 Days After Application, SETFA
[15] = SORVU: grain sorghum (Sorghum vulgare), read-out: Visual Growth Reduction (%) 14 Days After Application, SORVU
[16] = TRZSS (wheat, Triticum aestivum), crop, read-out: Visual Growth Reduction (%) 14 Days After Application, TRZSS
[17] = ZEAMX: maize, corn (Zea mays), crop, read-out: Visual Growth Reduction (%) 14 Days After Application, ZEAMX

Row | SMILES | pest or weed control at 70 g/ha [1, 3] | pest or weed control at 140 g/ha [1, 3] | pest or weed control at 70 g/ha [1, 4] | pest or weed control at 140 g/ha [1, 4] | pest or weed control at 70 g/ha [1, 5] | pest or weed control at 140 g/ha [1, 5] | pest or weed control at 70 g/ha [1, 6] | pest or weed control at 140 g/ha [1, 6] | pest or weed control at 70 g/ha [1, 7] | pest or weed control at 140 g/ha [1, 7] | pest or weed control at 70 g/ha [1, 8] | pest or weed control at 140 g/ha [1, 8] | pest or weed control at 70 g/ha [1, 9] | pest or weed control at 140 g/ha [1, 9] | melting point | pest or weed control at 70 g/ha [2, 10] | pest or weed control at 140 g/ha [2, 10] | pest or weed control at 70 g/ha [2, 11] | pest or weed control at 140 g/ha [2, 11] | pest or weed control at 70 g/ha [2, 12] | further results
1 | COC(=O)c1nc(-c2ccc(F)c(F)c2F)c(F)c(N)c1Cl [Compound 186] | 95 to 100% | 95 to 100% | 95 to 100% | 95 to 100% | 85 to 94% | 95 to 100% | 95 to 100% | 95 to 100% | 95 to 100% | 95 to 100% | 85 to 94% | 95 to 100% | 85 to 94% | 95 to 100% | 147 to 148 °C | 85 to 94% | 85 to 94% | 45 to 59% | 60 to 74% | 85 to 94% | pest or weed control at 140 g/ha [2, 12]: 95 to 100%; pest or weed control at 70 g/ha [2, 13]: 0 to 29%; pest or weed control at 140 g/ha [2, 13]: 30 to 44%; pest or weed control at 70 g/ha [2, 14]: 0 to 29%; pest or weed control at 140 g/ha [2, 14]: 60 to 74%; pest or weed control at 70 g/ha [2, 15]: 60 to 74%; pest or weed control at 140 g/ha [2, 15]: 75 to 84%; pest or weed control at 70 g/ha [2, 16]: 60 to 74%; pest or weed control at 140 g/ha [2, 16]: 60 to 74%; pest or weed control at 70 g/ha [2, 17]: 75 to 84%; pest or weed control at 140 g/ha [2, 17]: 85 to 94%
2 | COC(=O)c1ccc(-c2nc(C(=O)OC)c(Cl)c(N)c2F)cc1 [Compound 190, methyl 4-amino-3-chloro-5-fluoro-6-(4-(methoxycarbonyl)phenyl)picolinate] | 0 to 29% | 0 to 29% | 0 to 29% | 30 to 44% | 0 to 29% | 0 to 29% | 60 to 74% | 30 to 44% | 0 to 29% | 0 to 29% | 0 to 29% | 0 to 29% | 0 to 29% | 0 to 29% | 163 to 165 °C | 0 to 29% | 0 to 29% | 0 to 29% | 0 to 29% | 0 to 29% | pest or weed control at 140 g/ha [2, 12]: 0 to 29%; pest or weed control at 70 g/ha [2, 13]: 0 to 29%; pest or weed control at 140 g/ha [2, 13]: 0 to 29%; pest or weed control at 70 g/ha [2, 14]: 0 to 29%; pest or weed control at 140 g/ha [2, 14]: 0 to 29%; pest or weed control at 70 g/ha [2, 15]: 0 to 29%; pest or weed control at 140 g/ha [2, 15]: 0 to 29%; pest or weed control at 70 g/ha [2, 16]: 0 to 29%; pest or weed control at 140 g/ha [2, 16]: 0 to 29%; pest or weed control at 70 g/ha [2, 17]: 0 to 29%; pest or weed control at 140 g/ha [2, 17]: 0 to 29%
